“Also recorded” adds a separate entry of the source.
What was measured:
[1] = tested on: mdx mice; assay: In vivo nerve evoked torque and eccentric injury of the gastrocnemius muscle in mdx mice; set-up: species or system mouse; conditions: 20 eccentric contractions of gastrocnemius, FIG. 2D
Procedure: FIGS. 2A-2D illustrate that targeting microtubule density in vivo is solely sufficient to decrease contraction-induced injury in mdx mice. Nerve evoked torque and eccentric injury of the gastrocnemius muscle in vivo (FIG. 2A). […] Normalized torque records of the initial (time=0; wild-type in black, mdx in red) and 20th (grey) eccentric contractions (FIG. 2C).
Skeletal Muscle Function. Evan's blue dye (EBD) (5 μg/μl solution in PBS; 5 μl/g body weight) can be injected I.P. 24 hrs before the assay. The in vivo assessment of the nerve evoked isometric force vs. stimulation frequency relationship of the gastrocnemius can be determined as described in the art. The maximal isometric force (post hoc normalized to estimated cross sectional area) can be taken as the measure of functional quality of the muscle. […]
Susceptibility to contraction injury (skeletal muscle) can be assessed across each treatment cohort. As in FIG. 2, the % force deficit after 20 eccentric contractions of the gastrocnemius muscle can be determined. […] Thirty minutes after the last eccentric contraction, blood (orbital sinus) can be collected and analyzed for creatine kinase (CK) activity. […] After the trials, the muscle tissue can be processed and % EBD positive fibers can be used to quantitate the extent of muscle damage at rest (uninjured leg) or with injury.

[2] = tested on: mdx mice; assay: Isoproterenol cardiac stress test in mdx mice; assay type: in vivo, mouse
Procedure: FIGS. 5A-5D illustrate that colchicine blunts isoproterenol-induced cardiac damage in mdx and prevents cardiac arrhythmias. Wild-type and mdx mice were injected with Evan's blue dye one day prior then underwent an isoproterenol cardiac stress test and heart rate measured. […] Conversely, mdx mice cannot upregulate their heart rate to the same extent (˜2 fold) and only do so for a short period (30-45 min) before suffering severe arrhythmias and cardiac death, with only 10% survival.
Isoproterenol Cardiac Stress and Sarcolemmal Damage of the Heart. Catecholaminergic work-load stress induces atrial fibrillation (AF), ventricular tachycardia (VT) and sudden cardiac death (SCD) in mdx mice and this can be prevented by colchicine treatment (FIG. 5). To assess if colchicine pro-drugs prevent AF, VT and SCD, Evan's blue dye (EBD) (5 μg/μl solution in PBS; 5 μl/g body weight) can be injected I.P. 24 hrs before the assay. Mice are first anesthetized with sodium pentobarbital, and the heart rate monitored by a single-lead electrocardiogram. Isoproterenol is then used to pharmacologically increase the level of mechanical stress imposed on the heart. The mice are killed 3 hours after the administration of isoproterenol and the heart mounted in cryomatrix, sectioned and assessed for sarcolemmal damage.

[3] = cited from earlier work
[4] = tested on: OCY-293 cells; assay: In vitro microtubule destabilization in OCY-293 cells stably expressing GFP-tubulin; assay type: cell-based; conditions: 10-120 minutes, 0.3-100 μM
Procedure: Cell treatment: OCY-293 cells stably expressing GFP-tubulin were cultured in 96-well plates at 37° C. in modified DMEM. […] Control cells were treated with vehicle. DAPI was added to each well to identify the nuclei. At each time point, cells were fixed with 4% paraformaldehyde and stored at 4° C. in the dark until imaging.
Imaging and Analysis: Cells were imaged to assess microtubule structure using fluorescence microscopy (Nikon TIe) with 5 images taken in different locations of each well. The images were digitized in two channels (GFP to visualize tubulin, and therefore microtubules; and DAPI to visualize nuclei). The microtubule area was traced, and nuclei were counted using predictive software (Nikon Elements v4.51) via unbiased automated measurements of each image in each of the wells. The microtubule area was normalized to the number of nuclei.

[5] = tested on: mdx muscle fibers; assay: X-ROS, Ca2+ signaling and microtubule density in mdx muscle fibers in vitro; assay type: cell-based, mouse
Text: FIGS. 1A-1E illustrate that microtubules underlie dysfunction in DMD. Aggregate DFF signals from WT (Black; n=5) and mdx (Red; n=6) muscle fibers (FIG. 1A). Mean values from A show a significant increase in X-ROS in the mdx (*p<0.05) that is blunted by colchicine (FIG. 1B). X-ROS leads to Ca^2+ influx that is blocked by microtubule depolymerization (FIG. 1C). Microtubule density is elevated in mdx fibers and reduced by colchicine (FIGS. 1D and 1E).
In murine DMD (mdx), it has been discovered that disease-driven alterations in microtubule network density and properties underscore the deleterious excess of Nox2-ROS and Ca^2+ signals in skeletal muscle and heart. Using colchicine, a drug that promotes microtubule depolymerization, it has been shown that reducing microtubule density normalized the dysregulated ROS and Ca^2+ signaling in DMD muscle fibers in vitro (see FIG. 1). […] The significance of these pre-clinical discoveries was bolstered by transcriptional evidence (RNASeq) for microtubule excess in muscle biopsy samples from affected DMD patients.

COc1cc(C(C)=O)ccc1O [apocynin]
force loss / contraction injury after eccentric contractions [1]: significant protection from force loss

COc1cc2c(c(OC)c1OC)-c1ccc(OC)c(=O)cc1[C@@H](NC(C)=O)CC2 [colchicine]
cardiac death and arrhythmia ([2]; mdx mice after isoproterenol cardiac stress): prevents cardiac death and arrhythmia | survival ([2]; mdx mice after isoproterenol cardiac stress (untreated mdx 10% survival)): 90% | cardiac integrity (histological analysis, Evan's blue) ([2]; mdx mice, FIGS. 5C and 5D): significant preservations of cardiac integrity | increase in cardiac workload ([2]; mdx mice, compared to untreated animals): supports the increase in cardiac workload significantly | therapeutic window: lethal dose ([3]; in vivo): 16-30 × therapeutic dose | absorption, median ([3]; oral): 45% | half-life ([3]; orally dosed): 1 to 2.7 h | time of peak plasma concentration ([3]; orally dosed): 30 to 90 min | microtubule depolymerization (microtubule area normalized to number of nuclei) [4]: rapid depolymerization at low concentrations | force loss / contraction injury after eccentric contractions [1]: reduced contraction injury; also recorded: significant protection from force loss | Microtubule density in mdx fibers ([5]; FIGS. 1D and 1E): reduced | dysregulated ROS and Ca2+ signaling in DMD muscle fibers ([5]; in vitro, FIG. 1): normalized | X-ROS (DFF signal) increase in mdx muscle fibers ([5]; mdx muscle fibers, FIG. 1B): blunted

COc1cc2c(c(OC)c1OC)-c1ccc(OC)c(=O)cc1[C@@H](N(C)C(=O)OC(C)OC(C)=O)CC2 (stereo partly shown) [compound 7]
microtubule depolymerization (microtubule area normalized to number of nuclei) [4]: delayed and reduced depolymerization at all concentrations

CCCCCCCCCCCCCCCC(=O)OCOC(=O)N(C)[C@H]1CCc2cc(OC)c(OC)c(OC)c2-c2ccc(OC)c(=O)cc21 [compound 10]
microtubule depolymerization (microtubule area normalized to number of nuclei) [4]: dampened depolymerization at higher concentrations only
